In paper PMC10149936, “Cofilin activation in pancreatic acinar cells plays a pivotal convergent role for mediating CCK-stimulated enzyme secretion and growth” (Frontiers in Physiology, 2023):
No end group written: not given here.

Legend:
[1] = tested on: cofilin (pS3) in rat pancreatic acini; assay: cofilin activation (phospho-pS3 cofilin Western blot) in isolated rat pancreatic acini; format: cell-based; settings: for inhibition of dephosphorylation of cofilin stimulated by CCK-8 or TPA: PF-3758309 0.1 nM or LCH-7749944 30 µM; for inhibition of dephosphorylation of cofilin stimulated by CCK-8 or TPA / effect on basal phosphorylation level of cofilin / reversal of cofilin dephosphorylation stimulated by CCK-8 and TPA: 3 h; for inhibition of dephosphorylation of cofilin stimulated by CCK-8 or TPA / reversal of cofilin dephosphorylation by CCK-8: CCK-8 0.3 and 100 nM 3 min; for inhibition of dephosphorylation of cofilin stimulated by CCK-8 or TPA / reversal of cofilin dephosphorylation stimulated by CCK-8 and TPA: TPA 1 µM 5 min; for reversal of cofilin dephosphorylation by CCK-8: Wortmannin 1 µM, LY294002 100 µM, SB202190 10 µM, U0126 10 µM, Y-27632 10 µM 1 h, SP600125 20 µM 3 h; for decrease of basal phosphorylation levels of cofilin / inhibition of CCK-8-stimulated dephosphorylation of cofilin: LIMK inhibitor 10 µM 3 h; for decrease of basal phosphorylation levels of cofilin / effect on basal phosphorylation level of cofilin / effect on basal phosphorylation of cofilin: no stimulant; for inhibition of CCK-8-stimulated dephosphorylation of cofilin: CCK-8 0.3 or 100 nM 3 min; for effect on cofilin phosphorylation (pS3): 1 min, CCK-8 100 nM, carbachol 1 μM, bombesin 1 nM, secretin 1 nM or VIP 1 nM, n at least 3; for effect on basal phosphorylation level of cofilin / reversal of cofilin dephosphorylation stimulated by CCK-8 and TPA: GFX 5 µM, kbNB 0.1 µM or PP2 10 µM; for reversal of cofilin dephosphorylation stimulated by CCK-8 and TPA: CCK-8 100 nM 3 min; for effect on basal phosphorylation of cofilin: SE 50 µM 3 h or D3 25 µM 1 h
Experimental: (§1) Pancreatic acini preparations were obtained by collagenase digestion as previously described ([Bissonnette et al., 1984]; [Sato et al., 1989]; [Ramos-Alvarez and Jensen, 2018]). After collagenase digestion, dispersed acini were preincubated with different inhibitors in standard incubation solution ([Ramos-Alvarez and Jensen, 2018]; [Ramos-Ãlvarez et al., 2020]) for 3 h at 37°C under conditions specific for PKD/PKC, Src, PI3K, MAPKs, SSH1, LIMK, cofilin, other phosphatases and PAK4 inhibitors, as described previously ([Ramos-Alvarez and Jensen, 2018]; [Ramos-Ãlvarez et al., 2020]). Isolated acini and CCK1-R/Panc-1 cells (M&M 2.2.1) were also preincubated with two SSH1 inhibitors, D3 (25 μM, 1 h) ([Li et al., 2015]) or SE (50 μM, 3 h for acini; 24 h for CCK1-R/Panc-1 cells) ([Lee et al., 2017]). After preincubation, 1 mL aliquots of dispersed acini were incubated at 37°C for 3–15 min with CCK-8 (0.3 nM or 100 nM), for 5–15 min with TPA (1 µM) or without stimulants, used as control. Cells were lysed in lysis buffer (50 mM Tris/HCl pH 7.5, 150 mM NaCl, 1% Triton X-100, 1% deoxycholate, 0.1% sodium azide, 1 mM EGTA, 0.4 mM EDTA, 0.2 mM sodium orthovanadate, 1 mM PMSF, and one protease inhibitor tablet per 10 mL). After sonication, lysates were centrifuged at 10,000×g for 15 min at 4°C and protein concentration was measured using the Bio-Rad protein assay reagent. Finally, cells were processed as below for Western blotting.
(§2) Both concentrations of CCK-8 were used because CCK-8 is reported to have different responses with physiological and supraphysiological concentrations contributing to physiological and pathophysiological processes such as pancreatitis ([Dufresne et al., 2006]).
(§3) Western blotting and immunoprecipitation were performed as described previously ([Ramos-Alvarez and Jensen, 2018]). Whole cell lysates were subjected to SDS-PAGE using 4%–20% Tris–Glycine gels. […] Finally, membranes were then washed again twice in blocking buffer for 4 min, twice in washing buffer for 4 min, incubated for 4 min with chemiluminescence detection reagents. The intensity of the protein bands was measured using GeneTools software from Syngene, which were assessed in the linear detection range.
All experiments were performed at least 3 times. Data are presented as mean ± SEM and were analyzed with the non-parametric Kruskal–Wallis analysis (data was not normally distributed) and the Dunn’s multiple comparison test using the GraphPad Prism 8.0 software. P values < 0.05 were considered significant.
(A) Isolated pancreatic acini were incubated in the absence or presence of CCK-8 (100 nM), carbachol (1 μM), bombesin (1 nM), secretin (1 nM) or VIP (1 nM) for 1 min and then lysed. (B) Isolated pancreatic acini were incubated in the absence or presence of CCK-8 and CCK-JMV (at the indicate concentrations) for 3 min and then lysed. Western blots were analyzed using anti-pS3 cofilin, which mediates the activation state of cofilin. Bands were visualized using chemiluminescence and quantified by densitometry.

[2] = tested on: LIMK (pT508) in pancreatic acini; assay: LIMK phosphorylation (pT508 LIMK Western blot) in isolated rat pancreatic acini; format: cell-based; settings: for decrease of basal levels of LIMK phosphorylation: 10 µM, 3 h preincubation, n at least 4; for decrease of basal levels of LIMK phosphorylation / effect on basal phosphorylation of LIMK: no stimulant; for effect on basal phosphorylation of LIMK: SE 50 µM 3 h or D3 25 µM 1 h
Experimental: as §1, §2, §3
Isolated pancreatic acini were incubated with either no addition (control), CCK-8 (0.3 and 100 nM) or TPA (1 µM) for the indicated periods of time and then lysed. Western blots were analyzed using anti-pT508 LIMK, anti-pS3 cofilin and anti-pS978 SSH1, which […] the activation states of LIMK, cofilin and SSH1. Bands were visualized using chemiluminescence and quantified by densitometry.

[3] = tested on: cofilin (pS3) in CCK1-R/Panc-1 cells; assay: cofilin activation (pS3 cofilin Western blot) in CCK1-R/Panc-1 cells; format: cell-based, human; settings: CCK-8 0.3 or 100 nM; D3 25 µM 1 h or SE 50 µM 24 h
Experimental: CCK1 receptor transfected Panc-1 (CCK1-R/Panc-1) cells ([Berna et al., 2009]) and AR42J cells, were cultured in DMEM supplemented with 10% FBS and 1% penicillin/streptomycin and in RPMI supplemented with 10% FBS and 1% penicillin/streptomycin, respectively; and split 1:10 weekly with trypsin/EDTA, after washing in PBS. Finally, cells were seeded in 6-well plate and serum starved overnight, until they were 80% confluent. Cells were incubated at 37°C in 5% CO2/95% air. AR42J cells were treated with 100 nM dexamethasone for 72°h, which stimulates their differentiation into exocrine cells ([Logsdon, 1986]).
Pancreatic acini preparations were obtained by collagenase digestion as previously described ([Bissonnette et al., 1984]; [Sato et al., 1989]; [Ramos-Alvarez and Jensen, 2018]). […] Isolated acini and CCK1-R/Panc-1 cells (M&M 2.2.1) were also preincubated with two SSH1 inhibitors, D3 (25 μM, 1 h) ([Li et al., 2015]) or SE (50 μM, 3 h for acini; 24 h for CCK1-R/Panc-1 cells) ([Lee et al., 2017]). […] After sonication, lysates were centrifuged at 10,000×g for 15 min at 4°C and protein concentration was measured using the Bio-Rad protein assay reagent. […]
Western blotting and immunoprecipitation were performed as described previously ([Ramos-Alvarez and Jensen, 2018]). […] The intensity of the protein bands was measured using GeneTools software from Syngene, which were assessed in the linear detection range. […]
FIGURE 3 Effect of two SSH1 inhibitors, D3 and SE (A–C), or SSH1 siRNA (D), on the ability of CCK-8 (0.3 and 100 nM) to activate LIMK and cofilin in pancreatic acini (A/B) and activate cofilin in CCK1-R/Panc-1 cells (C/D). […] Western blots were analyzed using anti-pS3 cofilin and anti-pT508 […], and the knockdown effect of SSH1 was confirmed by Western blots using SSH1 (C-term) antibody. Bands were visualized using chemiluminescence and quantified by densitometry. […] Results are expressed as % of basal stimulation of the control group. *, p < 0.05 compared to the control group; ∞, p < 0.05 compared to stimulants without inhibitors. […]

[4] = inhibitor 10 µM 3 h, CCK-8 0.3 or 100 nM 3 min
[5] = Rattus norvegicus, CCK-8 0.3 or 100 nM, 5 min, SE 50 µM 3 h or D3 25 µM 1 h preincubation, n at least 4, read-out: inhibition of CCK-8-caused cofilin dephosphorylation
[6] = Rattus norvegicus, CCK-8 0.3 or 100 nM, 5 min, SE 50 µM 3 h or D3 25 µM 1 h preincubation, read-out: inhibition of CCK-8's dephosphorylation of LIMK

COc1cccc(Nc2nc(NCC3CCCO3)c3ccccc3n2)c1 (centres unmarked) [LCH-7749944, N2-(3-methoxyphenyl)-N4-[(oxolan-2-yl)methyl]quinazoline-2,4-diamine]
inhibition of dephosphorylation of cofilin stimulated by CCK-8 or TPA [1]: completely inhibited

C[C@@H](N)[C@H]1CC[C@H](C(=O)Nc2ccncc2)CC1 [Y-27632]
reversal of cofilin dephosphorylation by CCK-8 [1]: completely reversed

COC[C@H]1OC(=O)c2coc3c2[C@@]1(C)C1=C(C3=O)[C@@H]2CCC(=O)[C@@]2(C)C[C@H]1OC(C)=O [Wortmannin]
reversal of cofilin dephosphorylation by CCK-8 [1]: not PI3K or p38

Cc1c[nH]c2ncnc(-c3ccc(NC(=O)N(CCO)c4ccccc4)cc3)c12 [SR7826]
decrease of basal phosphorylation levels of cofilin [1]: 67%
inhibition of CCK-8-stimulated dephosphorylation of cofilin [1]: did not inhibit
decrease of basal levels of LIMK phosphorylation [2]: 33%
increase in LIMK phosphorylation with CCK-8 stimulation [2, 4]: 80%
inhibition of LIMK dephosphorylation caused by CCK-8 [2, 4]: completely inhibited

bombesin
effect on cofilin phosphorylation (pS3) [1]: rapidly decreased cofilin phosphorylation

KbNB142-70
effect on basal phosphorylation level of cofilin [1]: None of these inhibitors altered the basal phosphorylation level of cofilin
reversal of cofilin dephosphorylation stimulated by CCK-8 and TPA [1]: completely reversed

O=c1cc(N2CCOCC2)oc2c(-c3ccccc3)cccc12 [LY294002]
reversal of cofilin dephosphorylation by CCK-8 [1]: not PI3K or p38

CC(C)C(=O)Nc1ncc(-c2cc(C(F)F)nn2-c2c(Cl)cccc2Cl)s1 [LIMKi3]
decrease of basal phosphorylation levels of cofilin [1]: 39%
inhibition of CCK-8-stimulated dephosphorylation of cofilin [1]: did not inhibit
decrease of basal levels of LIMK phosphorylation [2]: 33%
inhibition of LIMK dephosphorylation caused by CCK-8 [2, 4]: completely inhibited

CC(C)(C)n1nc(-c2ccc(Cl)cc2)c2c(N)ncnc21 [PP2]
effect on basal phosphorylation level of cofilin [1]: None of these inhibitors altered the basal phosphorylation level of cofilin
reversal of cofilin dephosphorylation stimulated by CCK-8 and TPA [1]: completely reversed

VIP: pancreatic acinar secretagogue (HSDAVFTDNYTRLRKQMAVKKYLNSILN; ends and bridges not checked; UniProt P01282 125-152, looked up)
effect on cofilin phosphorylation (pS3) [1]: rapidly decreased cofilin phosphorylation

secretin
effect on cofilin phosphorylation (pS3) [1]: rapidly decreased cofilin phosphorylation

O=C(O)c1cc(O)c2c(c1)[C@H]([C@H]1c3cc(C(=O)O)cc(O)c3C(=O)c3c(O[C@@H]4O[C@H](CO)[C@@H](O)[C@H](O)[C@H]4O)cccc31)c1cccc(O[C@@H]3O[C@H](CO)[C@@H](O)[C@H](O)[C@H]3O)c1C2=O [SE, Sennoside A]
inhibition at 50 µM [1, 5]: 30 to 33%
effect on basal phosphorylation of cofilin [1]: Neither D3 nor SE affected the basal phosphorylation of LIMK or cofilin
inhibition of CCK-8-induced dephosphorylation of cofilin [3]: completely inhibited
inhibition at 50 µM [2, 6]: 20%
effect on basal phosphorylation of LIMK [2]: Neither D3 nor SE affected the basal phosphorylation of LIMK or cofilin

Cc1ccccc1N1C(=O)/C(=C/c2ccc(OCc3ccc(C(=O)O)cc3)cc2)SC1=S [D3, (Z)-4-((4-((4-oxo-2-thioxo-3-(o-tolyl)thiazolidin-5-ylidene)methyl)phenoxy)methyl)benzoic acid]
inhibition at 25 µM [1, 5]: 32 to 49%
effect on basal phosphorylation of cofilin [1]: Neither D3 nor SE affected the basal phosphorylation of LIMK or cofilin
inhibition of CCK-8-induced dephosphorylation of cofilin [3]: completely inhibited
inhibition at 25 µM [2, 6]: 20%
effect on basal phosphorylation of LIMK [2]: Neither D3 nor SE affected the basal phosphorylation of LIMK or cofilin

C[N+](C)(C)CCOC(N)=O [carbachol]
effect on cofilin phosphorylation (pS3) [1]: rapidly decreased cofilin phosphorylation

Cc1nc(Nc2[nH]nc3c2CN(C(=O)N[C@H](CN(C)C)c2ccccc2)C3(C)C)c2sccc2n1 [PF-3758309]
inhibition of dephosphorylation of cofilin stimulated by CCK-8 or TPA [1]: completely inhibited
